# Experimental data from patent US8178699B2, “Modulators of CCR9 receptor and methods of use thereof” (Pfizer Inc., priority 2008, dated 2012).
# pIC50: −log10 of the molar value. Structures can show the parent of a compound that is named as a salt.
# Biological target: T1, human CCR9 receptor (Homo sapiens, UniProt P51686)
# T1 construct: expressed in transfected cells
# T1 sequence (P51686 1-369): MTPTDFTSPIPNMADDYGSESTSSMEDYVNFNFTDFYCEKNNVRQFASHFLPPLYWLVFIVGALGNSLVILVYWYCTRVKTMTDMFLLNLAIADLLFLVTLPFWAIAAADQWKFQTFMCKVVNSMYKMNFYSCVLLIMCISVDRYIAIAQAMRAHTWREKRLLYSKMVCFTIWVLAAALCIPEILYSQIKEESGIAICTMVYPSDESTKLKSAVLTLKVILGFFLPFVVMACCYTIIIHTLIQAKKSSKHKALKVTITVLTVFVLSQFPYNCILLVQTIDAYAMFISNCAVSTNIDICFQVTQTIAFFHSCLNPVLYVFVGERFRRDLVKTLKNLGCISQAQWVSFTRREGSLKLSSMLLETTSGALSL
# Experiment: CCR9 FLIPR/FlexStation Assay (inhibition of TECK induced calcium mobilization)
# Type: cell-based
# Conditions: CCR9 antagonist activity; TECK induced calcium mobilization in CCR9-Flp-CHO cells stably over expressing human CCR9; rhTECK at EC70; read-out: Binding IC50
# From the text: Exemplary methods are described in US Publication Nos. US2004/0180892 and US2005/0049286, which are incorporated herein by reference. An exemplary assay for determining CCR9 antagonist activity of the compounds provided herein is CCR9 FLIPR/FlexStation Assay. In certain embodiments, the following protocol is used for the assay:
# CCR9 FLIPR/FlexStation Assay Protocol
# Calcium assay in FLIPR/FlexStation determines inhibitors of TECK induced calcium mobilization in CCR9-Flp-CHO cells that stably over express human CCR9 receptor. CCR9-Flp-CHO cells are seeded at 25,000 cells/well in a clear bottom, black wall 96-well plate (Greiner #655090) one day prior to assay. Cells are grown in a tissue culture incubator at 37° C. with 5% CO2 for 18 to 24 hours.
# Wash buffer and dye loading buffer are prepared fresh each time the assay is performed. Wash buffer is prepared according to the following protocol: 20 ml 10×HBSS (Invitrogen Gibco #14065-056), 4 ml 1M HEPES (Sigma H3784), 174 ml sterile deionized water; then add 140 mg probenecid (Sigma P8761) dissolved in 2 ml 1M NaOH (Fisher S318) to solution and pH to 7.4. This wash buffer contains 1×HBSS, 20 mM HEPES and 2.5 mM probenecid. For one 96-well plate, dye loading buffer is prepared as following: 11 ml wash buffer, 44 μl Fluo-4/pluoronic acid mix (prepared from 22 μL aliquot of 2 mM Fluo-4 (Molecular Probes F14202, 1 mg/tube)+22 μl 20% pluronic F-127 (Molecular Probes P3000MP).
# Cells are loaded with dye according to the protocol below:
# 1. Prepare wash buffer with 1×HBSS/HEPES at room temperature
# 2. Prepare loading buffer (keep in dark)
# 3. Aspirate culture media and wash with 100 μl wash buffer per well×1
# 4. Add 100 μl dye loading buffer to each well
# 5. Incubate at 37° C. for 30 minutes
# 6. Aspirate loading buffer
# 7. Wash with 100 μl wash buffer per well×3
# 8. Add 100 μl wash buffer per well
# 9. Incubate at 37° C. for 30 minutes
# 10. Assay plate with FLIPR or FlexStation
# 10 mM stock compounds in DMSO are prepared and diluted in DMSO to 1 mM. Compounds are diluted in wash buffer to make 8 point series dilutions containing same final concentration of DMSO (1%). Compounds are tested in duplicate wells for each point. Ligand rhTECK (R&D Systems 334-TK) was diluted to 6× of its EC70 with wash buffer. Appropriate amount of 6× ligand is added to each well. Data is analyzed using XLfit3 software to calculate IC50 value of antagonist activity for each compound.
# CCR9 antagonist activity of exemplary compounds was determined using CCR9 FLIPR/FlexStation Assay as described in Section 4.4 and is provided in Table 1 below. The IC50 for the compounds are represented as follows: A≦100 nM; B>100-500 nM; C>500 nM.
row,Compound,pIC50
1,"CC(C)(C)c1ccc(S(=O)(=O)Nc2ccsc2C(=O)O)c(Br)c1 [Example 1, 3-(2-bromo-4-tert-butylphenylsulfonamido)thiophene-2-carboxylic acid, sodium salt]",≥ 7.00
2,"CC(C)(C)c1ccc(S(=O)(=O)Nc2ccsc2C(=O)O)c(-c2ccc(Cl)cc2)c1 [Example 2, 3-(5-tert-butyl-4′-chlorobiphenyl-2-ylsulfonamido)thiophene-2-carboxylic acid, disodium salt]",< 6.30
3,"CC(C)(C)c1ccc(S(=O)(=O)Nc2ccsc2C(=O)O)c(N2CCOCC2)c1 [Example 3, 3-[4-tert-butyl-2-(morpholin-4-yl)phenylsulfonamido]thiophene-2-carboxylic acid]",6.30 to 7.00
4,"CN(C)c1ccc(-c2cc(C(C)(C)C)ccc2S(=O)(=O)Nc2ccsc2C(=O)O)cc1 [Example 4, 3-[5-tert-butyl-4′-(dimethylamino)biphenyl-2-ylsulfonamido]thiophene-2-carboxylic acid, disodium salt]",< 6.30
5,"CC(C)(C)c1ccc(S(=O)(=O)Nc2ccsc2C(=O)O)c(-c2cncnc2)c1 [Example 5, 3-[4-tert-butyl-2-(pyrimidin-5-yl)phenylsulfonamido]thiophene-2-carboxylic acid, disodium salt]",< 6.30
6,"CC(C)(C)c1ccc(S(=O)(=O)Nc2ccsc2C(=O)O)c(Cl)c1 [Example 6, 3-(4-tert-Butyl-2-chlorophenylsulfonamido)thiophene-2-carboxylic acid, disodium salt]",≥ 7.00
7,"CC(C)(C)c1ccc(S(=O)(=O)Nc2ccsc2C(=O)O)c(/C=C/c2ccccc2)c1 [Example 7, 3-(4-tert-butyl-2-styrylphenylsulfonamido)thiophene-2-carboxylic acid, disodium salt]",6.30 to 7.00
8,"COc1cc(C(C)(C)C)ccc1S(=O)(=O)Nc1ccsc1C(=O)O [Example 8, 3-(tert-butyl-2-methoxyphenylsulfonamido)thiophene-2-carboxylic acid, disodium salt]",≥ 7.00
9,"CC(C)(C)c1ccc(S(=O)(=O)Nc2ccsc2C(=O)O)c(O)c1 [Example 9, 3-(4-tert-butyl-2-hydroxyphenylsulfonamido)thiophene-2-carboxylic acid, trisodium salt]",6.30 to 7.00
10,"CC(C)(C)c1ccc(S(=O)(=O)Nc2ccsc2C(=O)O)c(C#N)c1 [Example 10, 3-(4-tert-butyl-2-cyanophenylsulfonamido)thiophene-2-carboxylic acid, disodium salt]",≥ 7.00
11,"CC(C)(C)c1ccc(S(=O)(=O)Nc2ccsc2C(=O)O)c(CCc2ccccc2)c1 [Example 11, 3-(4-tert-butyl-2-phenethylphenylsulfonamido)thiophene-2-carboxylic acid, disodium salt]",≥ 7.00
12,"CC(=O)Oc1cc(C(C)(C)C)ccc1S(=O)(=O)Nc1ccsc1C(=O)O [Example 12, 3-(2-acetoxy-4-tert-butylphenylsulfonamido)thiophene-2-carboxylic acid, disodium salt]",6.30 to 7.00
13,"Cc1cc(C(C)(C)C)ccc1S(=O)(=O)Nc1ccsc1C(=O)O [Example 13, 3-(4-tert-butyl-2-methylphenylsulfonamido)thiophene-2-carboxylic acid, disodium salt]",≥ 7.00
14,"CCC(C)c1ccc(S(=O)(=O)Nc2ccsc2C(=O)O)cc1 (stereo not shown) [Example 14, 3-(4-sec-butylphenylsulfonamido)thiophene-2-carboxylic acid, disodium salt]",≥ 7.00
15,"CN(c1ccsc1C(=O)O)S(=O)(=O)c1ccc(C(C)(C)C)cc1 [Example 15, 3-(4-tert-butyl-N-methylphenylsulfonamido)thiophene-2-carboxylic acid, sodium salt]",< 6.30

# The remaining lines, values ahead:
row,pIC50,Compound
1,≥ 7.00,"CC(C)(C)c1ccc(S(=O)(=O)Nc2ccsc2C(=O)O)cc1 [Example 16, 3-(4-tert-butylphenylsulfonamido)thiophene-2-carboxylic acid, disodium salt]"
2,< 6.30,"O=C(O)c1sccc1NS(=O)(=O)c1ccc2ccccc2c1 [Example 17, 3-(Naphthalene-2-sulfonamido)thiophene-2-carboxylic acid, disodium salt]"
3,6.30 to 7.00,"CCC(C)(C)c1ccc(S(=O)(=O)Nc2ccsc2C(=O)O)cc1 [Example 18, 3-(4-(1,1-Dimethylpropyl)phenylsulfonamido)thiophene-2-carboxylic acid, sodium salt]"
4,≥ 7.00,"CCCCc1ccc(S(=O)(=O)Nc2ccsc2C(=O)O)c(Cl)c1 [Example 19, 3-(4-butyl-2-chlorophenylsulfonamido)thiophene-2-carboxylic acid, disodium salt]"
5,< 6.30,"O=C(O)c1sccc1NS(=O)(=O)c1ccc(Br)cc1 [Example 20, 3-(4-bromophenylsulfonamido)thiophene-2-carboxylic acid, disodium salt]"
6,6.30 to 7.00,"O=C(O)c1sccc1NS(=O)(=O)c1ccc2c(c1)CCCC2 [Example 21, 3-(5,6,7,8-tetrahydronaphthalene-2-sulfonamido)thiophene-2-carboxylic acid, disodium salt]"
7,< 6.30,"Cc1ccccc1-c1cccc(S(=O)(=O)Nc2ccsc2C(=O)O)c1 [Example 22, 3-(2′-methylbiphenyl-3-ylsulfonamido)thiophene-2-carboxylic acid, disodium salt]"
8,< 6.30,"O=C(O)c1sccc1NS(=O)(=O)c1ccc(N2CCOCC2)cc1 [Example 23, 3-[(4-morpholin-4-yl)phenylsulfonamido]thiophene-2-carboxylic acid, disodium salt]"
9,6.30 to 7.00,"CC(C)(C)c1ccc(S(=O)(=O)Nc2c(C(=O)O)sc3ccccc23)cc1 [Example 24, 3-(4-tert-butylphenylsulfonamido)benzo[b]thiophene-2-carboxylic acid, disodium salt]"
10,< 6.30,"CC(C)(C)c1ccc(S(=O)(=O)Nc2c(C(=O)O)sc3ccc(F)cc23)cc1 [Example 25, 3-(4-tert-butylphenylsulfonamido)-5-fluorobenzo[b]thiophene-2-carboxylic acid, disodium salt]"
11,< 6.30,"CC(C)(C)c1ccc(S(=O)(=O)Nc2c(C(=O)O)sc3ncccc23)cc1 [Example 26, 3-(4-tert-butylphenylsulfonamido)thieno[2,3-b]pyridine-2-carboxylic acid, disodium salt]"
12,≥ 7.00,"O=C(O)c1sccc1NS(=O)(=O)c1ccc(C(F)(F)F)cc1Br [Example 27, 3-[2-bromo-4-(trifluoromethyl)phenylsulfonamido]thiophene-2-carboxylic acid, disodium salt]"
13,< 6.30,"CC(C)(C)c1ccc(S(=O)(=O)Nc2ccsc2C(=O)O)c(Oc2ccccc2)c1 [Example 28, 3-(4-tert-butyl-2-phenoxyphenylsulfonamido)thiophene-2-carboxylic acid, disodium salt]"
14,≥ 7.00,"CC(C)(C)c1ccc(S(=O)(=O)Nc2ccsc2C(=O)O)c(F)c1 [Example 29, 3-(4-tert-butyl-2-fluorophenylsulfonamido)thiophene-2-carboxylic acid, disodium salt]"
15,< 6.30,"CC(C)(C)c1ccc(S(=O)(=O)Nc2ccsc2C(=O)O)c(/C=C/C(=O)O)c1 [Example 30, 3-[4-tert-butyl-2-(2-carboxyvinyl)phenylsulfonamido]thiophene-2-carboxylic acid, trisodium salt]"
16,< 6.30,"O=C(O)c1sccc1NS(=O)(=O)c1ccc(-n2cccn2)cc1 [Example 31, 3-[4-(1H-pyrazol-1-yl)phenylsulfonamido]thiophene-2-carboxylic acid, disodium salt]"
